Measured values as given in US5478828A, “Piperazinyl-and piperidinyl-cyclohexanols” (Bristol-Myers Squibb Company, priority 1995, dated 1995).
Counter-ions that a name gives are not always drawn. Like-named read-outs stand apart in the source and are kept apart here.

Tests used:
D2 receptor = target: T1, D2 receptor (Bos taurus, UniProt P20288); test: In vitro receptor binding, D2
T1 construct: from tissue
Experimental: In vitro IC50 test values for binding to the D2 receptor were determined for representative compounds of Formula I by the method of Burt, Creese, and Snyder, Molecular Pharmacology 12, 800 (1976); Creese, Burt, and Snyder, Science 196, 326 (1977); and Creese, Burt and Snyder, Science.

5-HT1A receptor = test: In vitro receptor binding, 5-HT1A
Experimental: In vitro IC50 test values for binding to the 5-HT1A receptor were determined for representative compounds of Formula I by the method of S. J. Peroutka, Brain Research 344, 167 (1985); with only minor modifications. Test IC50 values lower than 100 nM are considered to reflect activity at the 5-HT1A receptor.

[1] = in vitro, read-out: D2 receptor binding IC50

T1 sequence (P20288 whole entry): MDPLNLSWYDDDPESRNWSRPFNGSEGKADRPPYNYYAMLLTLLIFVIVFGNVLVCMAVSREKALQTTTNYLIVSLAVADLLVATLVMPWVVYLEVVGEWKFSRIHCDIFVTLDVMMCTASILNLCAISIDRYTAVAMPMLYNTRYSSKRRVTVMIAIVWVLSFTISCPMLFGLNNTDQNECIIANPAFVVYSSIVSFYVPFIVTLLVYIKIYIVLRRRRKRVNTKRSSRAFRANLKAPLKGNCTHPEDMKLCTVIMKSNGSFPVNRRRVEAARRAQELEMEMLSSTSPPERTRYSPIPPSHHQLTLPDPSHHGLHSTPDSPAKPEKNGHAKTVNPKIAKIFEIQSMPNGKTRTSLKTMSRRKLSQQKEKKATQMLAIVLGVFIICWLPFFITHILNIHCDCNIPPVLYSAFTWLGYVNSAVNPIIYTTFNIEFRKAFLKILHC

IC50 (D2 receptor; [1]) [nM]	IC50 (5-HT1A receptor) [nM]	Structure (SMILES)	IC50 (D2 receptor) [nM]
> 1000	5.4	O[C@]1(c2ccc3c(c2)OCO3)CC[C@H](N2CCC(Cc3ccccc3)CC2)CC1 [Example 15, Z-1-(1,3-Benzodioxol-5-yl)-4-[4-(phenylmethyl)-1-piperidinyl]cyclohexanol]	
2710	15.6	COc1ccc([C@]2(O)CC[C@@H](N3CCC(Cc4ccccc4)CC3)CC2)cc1 [Example 16, Z-1-(4-Methoxyphenyl)-4-[4-(phenylmethyl)-1-piperidinyl]cyclohexanol]	
1350	14	CO[C@]1(c2ccc3c(c2)OCO3)CC[C@H](N2CCN(Cc3ccccc3)CC2)CC1 [Example 19, Z-1-[4-(1,3,-Benzodioxol-5-yl)-4-methoxycyclohexyl]-4-(phenylmethyl)piperazine]	
	5.3	O[C@]1(c2ccc3c(c2)OCCO3)CC[C@@H](N2CCN(Cc3ccccc3)CC2)CC1 [Example 20-E, E-1-(1,4-Benzodioxan-6-yl)-4-[4-(phenylmethyl)-1-piperazinyl]cyclohexanol]	
15200	9.9	O[C@]1(c2ccc3c(c2)OCCO3)CC[C@H](N2CCN(Cc3ccccc3)CC2)CC1 [Example 20-Z, Z-1-(1,4-Benzodioxan-6-yl)-4-[4-(phenylmethyl)-1-piperazinyl]cyclohexanol]	
2550	4.2	Cc1ccccc1CN1CCN([C@H]2CC[C@](O)(c3ccc4c(c3)OCO4)CC2)CC1 [Example 24, Z-1-(1,3-Benzodioxol-5-yl)-4-[4-[(2-methylphenyl)methyl]-1-piperazinyl]cyclohexanol]	
7080	12.8	O=[N+]([O-])c1ccccc1CN1CCN([C@H]2CC[C@](O)(c3ccc4c(c3)OCO4)CC2)CC1 [Example 25, Z-1-(1,3-Benzodioxol-5-yl)-4-[4-[(2,-nitrophenyl)methyl]-1-piperazinyl]cyclohexanol]	
	19.1	O[C@]1(c2ccc3c(c2)OCO3)CC[C@H](N2CCN(Cc3cccs3)CC2)CC1 [Example 26, Z-1-(1,3-Benzodioxol-5-yl)-4-[4-(2-thienylmethyl)-1-piperazinyl]cyclohexano]	
	1.85	O[C@]1(c2ccc3c(c2)OCO3)CC[C@H](N2CCN(Cc3ccccc3Cl)CC2)CC1 [Example 27, Z-1-(1,3-Benzodioxol-5-yl)-4-[4-[(2-chlorophenyl)methyl]-1-piperazinyl]cyclohexanol]	
	0.6	O[C@]1(c2ccc3c(c2)OCO3)CC[C@H](N2CCN(Cc3cc(Cl)ccc3Cl)CC2)CC1 [Example 28, Z-1-(1,3-Benzodioxol-5-yl)-4-[4-[(2,5-dichlorophenyl)methyl]-1-piperazinyl]-cyclohexanol]	
	2.6	O[C@]1(c2ccc3c(c2)OCO3)CC[C@H](N2CCN(Cc3cc(F)ccc3F)CC2)CC1 [Example 29, Z-1-(1,3-Benzodioxol-5-yl)-4-[4-[(2,5-difluorophenyl)methyl]-1-piperazinyl]-cyclohexanol]	
	17.3	O[C@]1(c2ccc3c(c2)OCO3)CC[C@H](N2CCN(Cc3cccc(F)c3F)CC2)CC1 [Example 30, Z-1-(1,3-Benzodioxol-5-yl)-4-[4,[(2,3-difluorophenyl)methyl]-1-piperazinyl]-cyclohexanol]	
	21.1	O[C@]1(c2ccc3c(c2)OCO3)CC[C@H](N2CCN(Cc3cc(F)cc(F)c3)CC2)CC1 [Example 31, Z-1-(1,3-Benzodioxol-5-yl)-4-[4-[(3,5-difluorophenyl)methyl]-1-piperazinyl]-cyclohexanol]	
	1.2	O[C@]1(c2ccc3c(c2)OCO3)CC[C@H](N2CCN(Cc3ccccc3I)CC2)CC1 [Example 32, Z-1-(1,3-Benzodioxol-5-yl)-4-[4-[(2-iodophenyl)methyl]-1-piperazinyl]cyclohexanol]	
	34.9	O[C@]1(c2ccc3c(c2)OCO3)CC[C@H](N2CCN(Cc3cccc4c3OCO4)CC2)CC1 [Example 33, Z-1-(1,3-Benzodioxol-5-yl)-4-[4-[(1,3-benzodioxo-4-yl)methyl]-1-piperazinyl]-cyclohexanol]	
	10.6	COc1cccc(CN2CCN([C@H]3CC[C@](O)(c4ccc(F)cc4)CC3)CC2)c1 [Example 34, Z-1-(4-Fluorophenyl)-4-[4-[(3-methoxyphenyl)methyl]-1-piperazinyl]cyclohexanol]	

IC50 (D2 receptor; [1]) [nM]	IC50 (5-HT1A receptor) [nM]	Structure (SMILES)	IC50 (D2 receptor) [nM]
	5.9	O[C@]1(c2ccc(F)cc2)CC[C@H](N2CCN(Cc3ccccc3Cl)CC2)CC1 [Example 35, Z-1-(4-Fluorophenyl)-4-[4-[(2-chlorophenyl)methyl]-1-piperazinyl]cyclohexanol]	
	25.8	O[C@]1(c2ccc(C(F)(F)F)cc2)CC[C@H](N2CCN(Cc3ccccc3Cl)CC2)CC1 [Example 37, Z-1-[(4-Trifluoromethyl)phenyl]-4-[4-[(2-chlorophenyl)methyl]-1-piperazinyl]-cyclohexanol]	
	35.6	COc1cccc(CN2CCN([C@H]3CC[C@](O)(c4ccc(C(F)(F)F)cc4)CC3)CC2)c1 [Example 38, Z-1-[(4-Trifluoromethyl)phenyl]-4-[4-[(3-methoxyphenyl)methyl]-1-piperazinyl]-cyclohexanol]	
	0.75	COc1ccc(F)c(CN2CCN([C@H]3CC[C@](O)(c4ccc5c(c4)OCO5)CC3)CC2)c1 [Example 39, Z-1-(1,3-Benzodioxol-5-yl)-4-[4-[(2-fluoro-5-methoxyphenyl)methyl]-1-piperazinyl]cyclohexanol]	
	3.45	COc1ccc(F)c(CN2CCN([C@H]3CC[C@](O)(c4ccc(F)cc4)CC3)CC2)c1 [Example 40, Z-1-(4-Fluorophenyl)-4,-[4,-[(2-fluoro-5-methoxyphenyl)methyl]-1piperazinyl]cyclohexanol]	
	2.2	COc1cccc(CC2CCN([C@H]3CC[C@](O)(c4ccc5c(c4)OCCO5)CC3)CC2)c1 [Example 41, Z-1-(1,4-Benzodioxan-6-yl)-4-[4-[(3-methoxyphenyl)methyl]-1-piperidinyl]cyclohexanol]	
	4.4	COc1cccc(CC2CCN([C@H]3CC[C@](O)(c4ccc5c(c4)OCO5)CC3)CC2)c1 [Example 42, Z-1-(1,3-Benzodioxol-5-yl)-4-[4-[(3-methoxyphenyl)methyl]-1-piperidinyl]cyclohexanol]	
	4.9	O[C@]1(c2ccc3c(c2)OCO3)CC[C@H](N2CCC(Cc3cc(F)ccc3F)CC2)CC1 [Example 43, Z-1-(1,3-Benzodioxol-5-yl)-4-[4-[(2,5-difluorophenyl)methyl]-1-piperidinyl]cyclohexanol]	
49200	8.2	COc1cccc(CC2CCN([C@H]3CC[C@](OC)(c4ccc5c(c4)OCO5)CC3)CC2)c1 [Example 44, Z-1-[4-(1,3-Benzodioxol-5-yl)-4-methoxy-1-cyclohexyl]-4-[(3-methoxyphenyl)methyl]-piperidine]	
	3.4	COc1cccc(CC2CCN([C@H]3CC[C@](OC)(c4ccc5c(c4)OCCO5)CC3)CC2)c1 [Example 45, Z-1-[4-(1,4-Benzodioxan-6-yl)-4-methoxy-1-cyclohexyl]-4-[3-(methoxyphenyl)methyl]-piperidine fumarate]	
	16.2	CO[C@]1(c2ccc3c(c2)OCO3)CC[C@H](N2CCC(Cc3cc(F)ccc3F)CC2)CC1 [Example 46, Z-1-[4-(1,3-Benzodioxol-5-yl)-4-methoxy-1-cyclohexyl]-4-[(2,5,-difluorophenyl)-methyl]piperidine fumarate]	
	59.8	O[C@]1(c2ccc(F)cc2)CC[C@H](N2CCC(Cc3ccccc3)CC2)CC1 [Example 47, Z-1-(4-Fluorophenyl)-4-[4-(phenylmethyl)-1-piperidinyl]cyclohexanol]	
	31.9	COc1cccc(CC2CCN([C@H]3CC[C@](O)(c4ccc(F)cc4)CC3)CC2)c1 [Example 48]	
	57.6	O[C@]1(c2ccc(F)cc2)CC[C@H](N2CCC(Cc3cc(F)ccc3F)CC2)CC1 [Example 49, Z-1-(4-Fluorophenyl)-4-[4-[(2,5-difluorophenyl)methyl]-1-piperidinyl]cyclohexanol]	
	28.6	O[C@]1(c2ccc3c(c2)OCO3)CC[C@H](N2CCN(C(c3ccccc3)c3ccccc3)CC2)CC1 [Example 51, Z-1-(1,3-Benzodioxol-5-yl)-4-[4-(diphenylmethyl)-1-piperazinyl]cyclohexanol]	
	18.1	CC(c1ccccc1)N1CCN([C@H]2CC[C@](O)(c3ccc4c(c3)OCO4)CC2)CC1 (stereo partly shown) [Example 52, Z-1-(1,3-Benzodioxol-5-yl)-4-[4-(1-phenylethyl)-1-piperazinyl]cyclohexanol]	

Structure (SMILES)	IC50 (D2 receptor; [1]) [nM]	IC50 (5-HT1A receptor) [nM]	IC50 (D2 receptor) [nM]
O[C@]1(c2ccc3c(c2)OCO3)CC[C@H](N2CCN(Cc3ccccc3)CC2)CC1 [Example 17, Z-1-(1,3-Benzodioxol-5-yl)-4-[4-(phenylmethyl)-1-piperazinyl]cyclohexanol]	1710	20	
COc1ccc([C@]2(O)CC[C@@H](N3CCN(Cc4ccccc4)CC3)CC2)cc1 [Example 18, Z-1-(4-Methoxyphenyl):4-[4-(phenylmethyl)-1-piperazinyl]cyclohexane]	1830	46.5	
COc1cccc(CN2CCN([C@H]3CC[C@](O)(c4ccc5c(c4)OCO5)CC3)CC2)c1 [Example 21, Z-1-(1,3,-Benzodioxol-5-yl)-4-[4-[(3-methoxyphenyl)methyl]-1-piperazinyl]-cyclohexanol]	1040	2.15	
O[C@]1(c2ccc3c(c2)OCO3)CC[C@H](N2CCN(Cc3cccc(F)c3)CC2)CC1 [Example 22, Z-1-(1,3-Benzodioxol-5-yl)-4-[4-[(3-fluorophenyl)methyl]-1-piperazinyl]cyclohexanol]		13.4	
O[C@]1(c2ccc3c(c2)OCO3)CC[C@H](N2CCN(Cc3ccccc3F)CC2)CC1 [Example 23, Z-1-(1,3-Benzodioxol-5-yl)-4-[4,[(2-fluorophenyl)methyl]-1-piperazinyl]cyclohexanol]		10.1	1540
O[C@]1(c2ccc3c(c2)OCO3)CC[C@H](N2CCN(Cc3ccccc3Br)CC2)CC1 [Example 50, Z-1-(1,3-Benzodioxol-5-yl)-4-[4-[(2-bromophenyl)methyl]-1-piperazinyl]cyclohexanol]		1.2	
